The text below walks through data of patent US8828414B2, “Biocidal composition of 2,6-dimethyl-m-dioxane-4-ol acetate and methods of use” (priority 2009, dated 2014).

Holding throughout (type): cell-based
In assay [1] the test system is Pseudomonas aeruginosa, Enterobacter gergoviae, Pseudomonas putida, Salmonella choleraesuis, Escherichia coli, Staphylococcus aureus (mixed inoculum). Briefly: Preservative efficacy of dimethoxane/2-phenoxyethanol in laundry detergent, repeated bacterial challenge. As to conditions: day 27.
Assay [2] shares this test system. Briefly: Preservative efficacy of dimethoxane/dibromoglutaronitrile in laundry detergent, repeated bacterial challenge. As to conditions: day 20.
Assay [3] shares this test system. Briefly: Preservative efficacy of dimethoxane/BNPD in laundry detergent, repeated bacterial challenge. More on the design: key to viable microorganism score (0-8 scale): 0-8 score = number of 1:10 dilutions to reach growth endpoint. As to conditions: day 20. The procedure:
(§1) Synergy Calculations. The reported synergy indexes are measured and calculated using the formula described below. In this approach, a synergy index of 1 indicates additivity. If the index is less than 1, synergy has occurred, while a synergy index greater than 1 indicates antagonism. Synergy index=CA/Ca+CB/Cb • Ca=minimal concentration of antimicrobial A, alone, producing a 4 log10 microbial kill • Cb=minimal concentration of antimicrobial B, alone, producing a 4 log10 microbial kill
(§2) CA and CB=the concentrations of antimicrobials A and B, in combination, producing the required microbial kill (a 4 log10 microbial kill unless indicated otherwise in a particular Example).
A sample of laundry detergent is treated with dimethoxane, BNPD, and combinations thereof. The samples are inoculated with four times over a four-week period with a 5×10^6 colony forming units per milliliter (CFU/mL) inoculum that includes Pseudomonas aeruginosa ATCC#9027, Enterobacter gergoviae ATCC#33028 Pseudomonas putida ATCC#49128, Salmonella choleraesuis ATCC#10708, Pseudomonas aeruginosa ATCC#10145, Pseudomonas aeruginosa ATCC#15442, Escherichia coli ATCC#11229, and Staphylococcus aureus ATCC#6538. The samples are inoculated on days 0, 2, 7, and 14 and analyzed for bacteria content on days 0, 1, 2, 3, 6, 8, 13, 15, 20, and 27. The bacteria concentrations are determined by serial dilution (1:10) until a growth endpoint is reached. The sample is scored on a 0-8 scale, based upon the number of serial dilutions required to reach the growth endpoint. For example, if a sample requires four 1:10 dilutions before bacterial growth is lost, then the sample receives a score of 4 which represents between 5×10^4 and 5×10^5 viable organisms.

Assay [4] relates to Pseudomonas aeruginosa, Enterobacter aerogenes, Escherichia coli, Klebsiella pneumoniae, Staphylococcus aureus, Salmonella choleraesuis (combined cultures). Briefly: Preservative efficacy of DMX/BNPD in water-based latex paint, repeated bacterial challenge. Particulars: for log10 viable microorganisms recovered: day 20. Here is the method: as §1, §2
In this Example, the antimicrobial profiles of dimethoxane (DMX), 2-bromo-2-nitropropane-1,3-diol (BNPD) and combinations of DMX and BNPD are evaluated in a commercial (interior eggshell) water-based latex paint formulation (pH 7.4). The paint formulation is determined to be free of microbial contamination prior to initiation of preservative efficacy evaluations.
Experimental Setup. Tests are conducted in a 96-deep well block format using a total sample volume of 600 μl for all evaluations. In these samples, no more than 10% of the total volume consists of the biocide and organism solution and all non-matrix additions are normalized for all samples. Each experimental 96-well block contains biocide-treated samples and control samples which lack biocide.
Microorganisms. Twenty-four hour tryptic soy broth cultures are combined in equal parts for formulation inoculation at a final concentration of 5×10^6 CFU/ml. Organisms are added to each sample of the 96-well block and mixed until homogenous. Additionally, bacterial challenges of the paint samples occur on days 0, 2, 7, and 14 of the 28-day test period. Organisms utilized: Pseudomonas aeruginosa (ATCC#15442), Pseudomonas aeruginosa (ATCC#10145), Enterobacter aerogenes (ATCC#13048), Escherichia coli (ATCC#11229), Klebsiella pneumoniae (ATCC#8308), Staphylococcus aureus (ATCC#6538), Salmonella choleraesuis (ATCC#10708).
Enumeration of Viable Organisms. Sample aliquots are removed, at predetermined time points, for the enumeration of surviving microorganisms. Numerical values in the data tables listed below represent the log10 viable microorganisms recovered from individual samples at specific time points and biocide concentrations post microorganism addition. Biocide concentrations resulting in a ≧4 log10 kill of microorganisms, as compared to the preservative-free control, are deemed a significant reduction of viable organisms and are subsequently used for calculating synergy index values.

For assay [5] the test system is unchanged. Briefly: Preservative efficacy of DMX/BNPD in spinning finish emulsion, repeated bacterial challenge. As to conditions: ≧6 log10 microbial kill, day 27, post 4th microbial challenge. Here is the method: as §1, §2
In this Example, the antimicrobial profiles of dimethoxane (DMX), 2-bromo-2-nitropropane-1,3-diol (BNPD) and combinations of DMX and BNPD are evaluated in a spinning finish emulsion. The spinning finish emulsion is determined to be free of microbial contamination prior to initiation of preservative efficacy evaluations. The spinning finish emulsion is prepared by adding 1 part spinning finish oil to 9 parts distilled water followed by 30 minutes of mixing.
Experimental Setup. Tests are conducted in a 96-deep well block format using a total sample volume of 300 to 600 μl for all evaluations. […]

Where [6] appears, read: minimal concentration alone giving passing score (2 or less).
[7] abbreviates: ≧4 log10 microbial kill, day 20, after four bacterial challenges, ppm active.

Regarding `OCCOc1ccccc1` [Combination 2-PE, 2-Phenoxyethanol], the “viable microorganism score (0-8 scale)” value was 7 in assay [1] (2-PE 585 ppm alone); 7 in assay [1] (2-PE 878 ppm alone); 7 in assay [1] (2-PE 1317 ppm alone); 7 in assay [1] (2-PE 1975 ppm alone); 5 in assay [1] (2-PE 2963 ppm alone); 6 in assay [1] (2-PE 4444 ppm alone). Moreover, the “viable microorganism score (0-8 scale)” value is 6 in assay [1] (2-PE 6667 ppm alone) and 0 in assay [1] (2-PE 10000 ppm alone). Also, the “Min alone, 2-PE (ppm)” value in assay [1] (setting [6]) stood at 10000 ppm.

On to `N#CCCC(Br)(C#N)CBr` (stereo not shown) [DBGN, 2-Bromo-2-(bromomethyl)glutaronitrile], for which the “viable microorganism score (0-8 scale)” value was 8 in assay [2] (DBGN 3 ppm alone); 8 in assay [2] (DBGN 4 ppm alone); 8 in assay [2] (DBGN 7 ppm alone); 8 in assay [2] (DBGN 10 ppm alone); 8 in assay [2] (DBGN 15 ppm alone); 7 in assay [2] (DBGN 22 ppm alone). Further, the “viable microorganism score (0-8 scale)” value in assay [2] (DBGN 33 ppm alone) was 3; in assay [2] (DBGN 50 ppm alone), 0. Moreover, the “Min alone, DBGN (ppm)” value in assay [2] (setting [6]) is given as 50 ppm.

On to `O=[N+]([O-])C(Br)(CO)CO` [BNPD, 2-Bromo-2-nitropropane-1,3-diol], for which the entries for the “BNPD alone (ppm)” value in assay [3] (4 log10 kill of bacteria) and in assay [4] (setting [7]) were 99 ppm and 300 ppm, respectively. For the same compound, the “viable microorganism score (0-8 scale)” value in assay [3] (BNPD 44 ppm alone) amounted to 4.0; in assay [3] (BNPD 66 ppm alone) it was 2.0; in assay [3] (BNPD 99 ppm alone) it was 0.0; in assay [3] (BNPD 148 ppm alone), 0.0; in assay [3] (BNPD 222 ppm alone), 0.0; in assay [3] (BNPD 333 ppm alone) it was 0.0. The “viable microorganism score (0-8 scale)” value in assay [3] (BNPD 500 ppm alone) and in assay [3] (BNPD 750 ppm alone) was 0.0 in each case. The “log10 viable microorganisms recovered” value in assay [4] (BNPD 26 ppm alone), in assay [4] (BNPD 40 ppm alone), in assay [4] (BNPD 59 ppm alone), in assay [4] (BNPD 89 ppm alone), in assay [4] (BNPD 133 ppm alone) and in assay [4] (BNPD 200 ppm alone) was 8 throughout. The “log10 viable microorganisms recovered” value in assay [4] (BNPD 300 ppm alone) and in assay [4] (BNPD 450 ppm alone) was 0 throughout. For the same compound, the “BNPD alone (ppm), active concentration necessary for microbial kill” value in assay [5] came to 137 ppm.

As for `CC(=O)OC1CC(C)OC(C)O1` (stereo not shown) [DMX, 2,6-Dimethyl-m-dioxan-4-ol acetate], the “DMX alone (ppm)” value in assay [3] (4 log10 kill of bacteria) is 1160 ppm; in assay [4] (setting [7]), 1740 ppm. The “viable microorganism score (0-8 scale)” value in assay [3] (DMX 153 ppm alone) was determined as 5.0; in assay [3] (DMX 229 ppm alone), 5.0; in assay [3] (DMX 344 ppm alone), 5.0; in assay [3] (DMX 516 ppm alone), 6.0; in assay [3] (DMX 773 ppm alone), 4.0; in assay [3] (DMX 1160 ppm alone) it was 0.0. Also, the “viable microorganism score (0-8 scale)” value in assay [3] (DMX 1740 ppm alone) is on record as 0.0; in assay [3] (DMX 2610 ppm alone), 0.0; in assay [1] (DMX 153 ppm alone), 7; in assay [1] (DMX 229 ppm alone), 6; in assay [1] (DMX 344 ppm alone) it was 6; in assay [1] (DMX 516 ppm alone), 6. In addition, the “viable microorganism score (0-8 scale)” value in assay [1] (DMX 773 ppm alone) was 0; in assay [1] (DMX 1160 ppm alone), 0; in assay [1] (DMX 1740 ppm alone), 0; in assay [1] (DMX 2610 ppm alone), 0; in assay [2] (DMX 76 ppm alone) it was 8; in assay [2] (DMX 115 ppm alone) it was 8. The “viable microorganism score (0-8 scale)” value in assay [2] (DMX 172 ppm alone) came to 8; in assay [2] (DMX 258 ppm alone), 7; in assay [2] (DMX 387 ppm alone) it was 3; in assay [2] (DMX 580 ppm alone), 2; in assay [2] (DMX 870 ppm alone), 2; in assay [2] (DMX 1305 ppm alone) it was 0. The “log10 viable microorganisms recovered” value in assay [4] (DMX 102 ppm alone), in assay [4] (DMX 153 ppm alone), in assay [4] (DMX 229 ppm alone), in assay [4] (DMX 344 ppm alone), in assay [4] (DMX 516 ppm alone) and in assay [4] (DMX 773 ppm alone) was 8 in each case. The “log10 viable microorganisms recovered” value amounted to 8 in assay [4] (DMX 1160 ppm alone) and 0 in assay [4] (DMX 1740 ppm alone). In addition, the “Min alone, Dimethoxane (ppm)” value in assay [1] (setting [6]) is listed as 773 ppm. The “Min alone, DMX (ppm)” value in assay [2] (setting [6]) amounted to 580 ppm.
